Experimental data taken from patent US20070261453A1, “Plant Nutrient Based on O,P-Ethylene(Bis)Hydroxyphenyl Glycines” (priority 2004, published 2007).

Tested on: Soybean (cv.Oshumi) plants
Assay: Soybean iron chlorosis experiment in aerated nutrient solution with Fe chelate treatments (plant weight, iron content, SPAD index)
Type: in vivo
Conditions: for Iron content in parts of the plants: leaf / Iron content in parts of the plants: per number of leaves / Iron content in parts of the plants: root: dry digestion and atomic absorption, sampled after 14 days; for Iron content in parts of the plants: leaf / Iron content in parts of the plants: per number of leaves / Iron content in parts of the plants: root / Dry leaf weight / Dry root weight / Fresh leaf weight / Fresh plant weight / Fresh root weight: mean of 4 replicates; for Dry leaf weight / Dry root weight / Fresh leaf weight / Fresh plant weight / Fresh root weight: iron-chlorotic soybean plants, sampled 14 days after start of Fe treatment; for Spad index (second leaf): Minolta SPAD 502, means of 4 replicates
Description: Soybean (cv.Oshumi) plants have been used in the biological experiment. Plants were obtained from soybean seeds that were germinated in standard seed growing procedure in closed sterilized trays. The seeds were placed in the trays on a cellulose paper soaked with 50 milliliters of distilled water and with another paper placed over them. 30 ml distilled water and 20 ml CaSO4 1 mM were added. The trays were placed in a thermostatized stove, without light, at […] for 3 days. After this time the seedlings of similar development were placed on a holed plate floating over containers full of diluted nutrient solution and EDTA for 7 days. Nutrient solutions (without iron) were a mixture of: macronutrients: 1 mM Ca(NO3)2·4H2O, 0.9 mM KNO3, 0.3 mM MgSO4, 0.1 mM KH2PO4; cationic micronutrients: 2.5 μM MnSO4, 1 μM CuSO4, 10 μM ZnSO4, 1 μM NiCl2, 1 μM CoSO4, 115.5 μM EDTANa2 (100 μM in excess to buffer micronutrients activities), 231 μM KOH; anionic micronutrients: 35 μM NaCl, 10 μM H3BO3, 0.05 μM Na2MoO4. The pH was buffered at 7.5 with 0.1 mM HEPES (N-2-Hydroxyethylpiperazine-N′-2-ethanesulfonic acid), 0.05mM KOH and 2 g of CaCO3 per pot. Later, plants were subjected to a stressing procedure that consisted in putting them in five pails that contained 10 | each one of nutrient solution without iron chelate. […] After 6 days, the stems of two plants were wrapped together with foam and placed in 2 | polyethylene vessels (3 holes per lid, 2 plants per pot). The pots were completely covered with black plastic to avoid the incidence of the light. The vessels contained 2 | of continuously aerated nutrient solution containing the Fe treatments. Nutrient solution consisted of macronutrients and anionic micronutrients as before and cationic micronutrients: MnSO4 (1 μM), CuSO4 (0.5 μM), ZnSO4 (0.5 μM), NiCl2 (0.1 μM) and CoSO4 (0.1 μM). Water was added every two days and the solution was renewed every week. Plants were sampled 14 days after. Roots and leaves were separated and washed first with Tween® 80 (polyoxyethylene sorbitan monooleate) in 0.1 M HCl for 30 seconds, and then with abundant distilled water, after that they were weighted and dried. Micronutrientes were determined in leaves and in roots after dry digestion procedure and atomic absorption. During the experiment SPAD readings were frequently taken using the Minolta SPAD 502 chlorophyll meter, for all the leaves.
Seven different treatments were applied: • Comparative Example 1: No iron added. • Comparative Example 2: Fe-o,o-EDDHA 5 μM • Comparative Example 3: Fe-o,o-EDDHA 5 μM+Fe-o,p-EDDHA 1 μM. • Comparative Example 4: Fe-o,o-EDDHA 5 μM+Fe-o,p-EDDHA 2.5 μM. • Comparative Example 5: Fe-o,o-EDDHA 10 μM • Example 1: Fe-o,p-EDDHA 5 μM. • Example 2: Fe-o,o-EDDHA 5 μM+Fe-o,p-EDDHA 5 μM.
Four replications were prepared for each treatment.

[1] = listed as Comparative Example 2

SMILES: O=C([O-])C(NCCNC(C(=O)[O-])c1ccccc1[O-])c1ccc(O)cc1.[Fe+3] (stereo not drawn) [Example 1, Fe-o,p-EDDHA]
- Course of SPAD values compared with Comparative Examples (in words) (Example 1 vs Comparative Examples 1 to 3, Example 2 vs Comparative Examples 4 and 5): raise considerably steeper
- Weight of the plants compared with Comparative Examples (in words) (Example 1 vs Comparative Examples 1 to 3, Example 2 vs Comparative Examples 4 and 5, Table 3): considerable raise of weight of the plants
- Iron content in parts of the plants compared with Comparative Examples (in words) (Example 1 vs Comparative Examples 1 to 3, Example 2 vs Comparative Examples 4 and 5, Table 4): increase in the iron content
- Iron content in parts of the plants: leaf: 80.98 μg Fe/g dry leave
- Iron content in parts of the plants: per number of leaves: 91.91 μg Fe/number of leaves
- Iron content in parts of the plants: root: 128.48 μg Fe/g dry root
- Dry leaf weight: 1.136 g
- Dry root weight: 0.595 g
- Fresh leaf weight: 6.282 g
- Fresh plant weight: 21.186 g
- Fresh root weight: 8.933 g
- Spad index (second leaf) (time 0 days): 14.7
- Spad index (second leaf) (time 2 days): 14.0
- Spad index (second leaf) (time 4 days): 18.0
- Spad index (second leaf) (time 7 days): 21.4
- Spad index (second leaf) (time 9 days): 13.9
- Spad index (second leaf) (time 11 days): 24.9

SMILES: O=C([O-])C(NCCNC(C(=O)[O-])c1ccccc1[O-])c1ccccc1[O-].[Fe+3] (single isomer, unassigned) [Comp. Example 2, Fe-o,o-EDDHA]
- Iron content in parts of the plants: leaf [1]: 62.30 μg Fe/g dry leave
- Iron content in parts of the plants: per number of leaves [1]: 19.82 μg Fe/number of leaves
- Iron content in parts of the plants: root [1]: 90.32 μg Fe/g dry root
- Dry leaf weight: 0.321 g
- Dry root weight: 0.282 g
- Fresh leaf weight: 1.257 g
- Fresh plant weight: 6.781 g
- Fresh root weight: 3.818 g
- Spad index (second leaf) (time 0 days, listed as C2): 12.7
- Spad index (second leaf) (time 2 days, listed as C2): 10.1
- Spad index (second leaf) (time 4 days, listed as C2): 9.1
- Spad index (second leaf) (time 7 days, listed as C2): 9.5
- Spad index (second leaf) (time 9 days, listed as C2): 9.2
- Spad index (second leaf) (time 11 days, listed as C2): 8.2

SMILES: O=C([O-])C(NCCNC(C(=O)[O-])c1ccccc1[O-])c1ccccc1[O-].[Fe+3] (single isomer, unassigned) [Comp. Example 5, Fe-o,o-EDDHA]
- Iron content in parts of the plants: leaf: 74.87 μg Fe/g dry leave
- Iron content in parts of the plants: per number of leaves: 55.15 μg Fe/number of leaves
- Iron content in parts of the plants: root: 77.22 μg Fe/g dry root
- Dry leaf weight: 0.781 g
- Dry root weight: 0.425 g
- Fresh leaf weight: 4.736 g
- Fresh plant weight: 15.862 g
- Fresh root weight: 7.316 g
- Spad index (second leaf) (time 0 days): 16.6
- Spad index (second leaf) (time 2 days): 15.7
- Spad index (second leaf) (time 4 days): 15.0
- Spad index (second leaf) (time 7 days): 18.2
- Spad index (second leaf) (time 9 days): 19.7
- Spad index (second leaf) (time 11 days): 19.0
